Measurements as given in PubChem BioAssay (NCI).
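Results reflect a 48-hour exposure of cells in 96-well plates to compound at five concentrations. Abbreviation: GI50, concentration required for 50% inhibition of growth. TGI: total growth inhibition.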

Tests used:
Test in all cases: inhibition of tumour cell growth, NCI panel, 48 h
CCRF-CEM leukemia = test system: CCRF-CEM leukemia
TK-10 renal = test system: TK-10 renal
786-0 renal = test system: 786-0 renal
HCT-15 colon = test system: HCT-15 colon
NCI-H23 lung = test system: NCI-H23 lung
IGROV1 ovarian = test system: IGROV1 ovarian
HOP-92 NSCLC = test system: HOP-92 NSCLC
MCF7 breast = test system: MCF7 breast
EKVX NSCLC = test system: EKVX NSCLC
CAKI-1 renal = test system: CAKI-1 renal
MDA-MB-435 = test system: MDA-MB-435
SK-MEL-28 melanoma = test system: SK-MEL-28 melanoma
SK-MEL-5 melanoma = test system: SK-MEL-5 melanoma
MALME-3M melanoma = test system: MALME-3M melanoma
HOP-62 NSCLC = test system: HOP-62 NSCLC
NCI-H460 lung = test system: NCI-H460 lung
SR leukemia = test system: SR leukemia
SN12C renal = test system: SN12C renal
SNB-19 CNS = test system: SNB-19 CNS
KM12 colon = test system: KM12 colon
OVCAR-4 ovarian = test system: OVCAR-4 ovarian
OVCAR-5 ovarian = test system: OVCAR-5 ovarian
NCI-H522 lung = test system: NCI-H522 lung
COLO 205 colon = test system: COLO 205 colon
HCC-2998 colon = test system: HCC-2998 colon
M14 melanoma = test system: M14 melanoma
NCI/ADR-RES ovarian = test system: NCI/ADR-RES ovarian
A549 NSCLC = test system: A549 NSCLC
A498 renal = test system: A498 renal
DU-145 prostate = test system: DU-145 prostate
HL-60(TB) leukemia = test system: HL-60(TB) leukemia
U251 CNS = test system: U251 CNS
SF-268 CNS = test system: SF-268 CNS
SF-539 CNS = test system: SF-539 CNS
ACHN renal = test system: ACHN renal
SF-295 CNS = test system: SF-295 CNS
PC-3 prostate = test system: PC-3 prostate
OVCAR-8 ovarian = test system: OVCAR-8 ovarian
NCI-H226 lung = test system: NCI-H226 lung
MDA-MB-231 breast = test system: MDA-MB-231 breast
SNB-75 CNS = test system: SNB-75 CNS
RXF 393 renal = test system: RXF 393 renal
RPMI-8226 leukemia = test system: RPMI-8226 leukemia
UACC-257 melanoma = test system: UACC-257 melanoma
SK-MEL-2 melanoma = test system: SK-MEL-2 melanoma
HT29 colon = test system: HT29 colon
T-47D breast = test system: T-47D breast
BT-549 breast = test system: BT-549 breast
HCT-116 colon = test system: HCT-116 colon
K-562 leukemia = test system: K-562 leukemia
MOLT-4 leukemia = test system: MOLT-4 leukemia
UACC-62 melanoma = test system: UACC-62 melanoma
SW-620 colon = test system: SW-620 colon
HS 578T breast = test system: HS 578T breast
UO-31 renal = test system: UO-31 renal

CNC(=O)c1c(NC(=O)c2ccccc2C(F)(F)F)sc2c1CCC(=O)C2
GI50 (CCRF-CEM leukemia): 0.348 µM
TGI (CCRF-CEM leukemia): > 100 µM
GI50 (TK-10 renal): 1.54 µM
TGI (TK-10 renal): > 100 µM
GI50 (786-0 renal): 3.8 µM
TGI (786-0 renal): > 100 µM
GI50 (HCT-15 colon): 0.37 µM
TGI (HCT-15 colon): 10.5 µM
GI50 (NCI-H23 lung): 1.33 µM
TGI (NCI-H23 lung): 7.61 µM
GI50 (IGROV1 ovarian): 1.87 µM
TGI (IGROV1 ovarian): 17.8 µM
GI50 (HOP-92 NSCLC): 1.2 µM
TGI (HOP-92 NSCLC): 3.39 µM
GI50 (MCF7 breast): 1.91 µM
TGI (MCF7 breast): 11.9 µM
GI50 (EKVX NSCLC): 1.99 µM
TGI (EKVX NSCLC): 37.6 µM
GI50 (CAKI-1 renal): 0.464 µM
TGI (CAKI-1 renal): 2.55 µM
GI50 (MDA-MB-435): 2.72 µM
TGI (MDA-MB-435): 11.2 µM
GI50 (SK-MEL-28 melanoma): 3.59 µM
TGI (SK-MEL-28 melanoma): 54.9 µM
GI50 (SK-MEL-5 melanoma): 1.7 µM
TGI (SK-MEL-5 melanoma): 3.72 µM
GI50 (MALME-3M melanoma): 2.26 µM
TGI (MALME-3M melanoma): 6.33 µM
GI50 (HOP-62 NSCLC): 3.44 µM
TGI (HOP-62 NSCLC): > 100 µM
GI50 (NCI-H460 lung): 3.27 µM
TGI (NCI-H460 lung): > 100 µM
GI50 (SR leukemia): 0.538 µM
TGI (SR leukemia): > 100 µM
GI50 (SN12C renal): 2.9 µM
TGI (SN12C renal): > 100 µM
GI50 (SNB-19 CNS): 3.18 µM
TGI (SNB-19 CNS): > 100 µM
GI50 (KM12 colon): 4.29 µM
TGI (KM12 colon): 16.8 µM
GI50 (OVCAR-4 ovarian): 1.58 µM
TGI (OVCAR-4 ovarian): 4 µM
GI50 (OVCAR-5 ovarian): 1.48 µM
TGI (OVCAR-5 ovarian): 5.58 µM
GI50 (NCI-H522 lung): 0.347 µM
TGI (NCI-H522 lung): 2.33 µM
GI50 (COLO 205 colon): 1.29 µM
TGI (COLO 205 colon): 3.12 µM
GI50 (HCC-2998 colon): 2.96 µM
TGI (HCC-2998 colon): 15.2 µM
GI50 (M14 melanoma): 2.51 µM
TGI (M14 melanoma): 33.5 µM
GI50 (NCI/ADR-RES ovarian): 1.97 µM
TGI (NCI/ADR-RES ovarian): 13.4 µM
GI50 (A549 NSCLC): 3.28 µM
TGI (A549 NSCLC): > 100 µM
GI50 (A498 renal): 2.09 µM
TGI (A498 renal): 6.24 µM
GI50 (DU-145 prostate): 4.45 µM
TGI (DU-145 prostate): > 100 µM
GI50 (HL-60(TB) leukemia): 0.339 µM
TGI (HL-60(TB) leukemia): 13.4 µM
GI50 (U251 CNS): 0.817 µM
TGI (U251 CNS): > 100 µM
GI50 (SF-268 CNS): 3.19 µM
TGI (SF-268 CNS): > 100 µM
GI50 (SF-539 CNS): 0.678 µM
TGI (SF-539 CNS): 2.22 µM
GI50 (ACHN renal): 0.397 µM
TGI (ACHN renal): 2.03 µM
GI50 (SF-295 CNS): 2.51 µM
TGI (SF-295 CNS): 7.63 µM
GI50 (PC-3 prostate): 0.426 µM
TGI (PC-3 prostate): 14.6 µM
GI50 (OVCAR-8 ovarian): 1.41 µM
TGI (OVCAR-8 ovarian): > 100 µM
GI50 (NCI-H226 lung): 2.46 µM
TGI (NCI-H226 lung): 8.01 µM
GI50 (MDA-MB-231 breast): 2 µM
TGI (MDA-MB-231 breast): 4.78 µM
GI50 (SNB-75 CNS): 1.54 µM
TGI (SNB-75 CNS): 6.82 µM
GI50 (RXF 393 renal): 1.12 µM
TGI (RXF 393 renal): 4.2 µM
GI50 (RPMI-8226 leukemia): 0.278 µM
GI50 (UACC-257 melanoma): 2.76 µM
TGI (UACC-257 melanoma): 8.28 µM
GI50 (SK-MEL-2 melanoma): 2.77 µM
TGI (SK-MEL-2 melanoma): 7.6 µM
GI50 (HT29 colon): 1.45 µM
TGI (HT29 colon): 9.66 µM
GI50 (T-47D breast): 0.528 µM
TGI (T-47D breast): 4.98 µM
GI50 (BT-549 breast): 2.54 µM
TGI (BT-549 breast): > 100 µM
GI50 (HCT-116 colon): 0.384 µM
TGI (HCT-116 colon): 12.1 µM
GI50 (K-562 leukemia): 0.417 µM
TGI (K-562 leukemia): > 100 µM
GI50 (MOLT-4 leukemia): 1.2 µM
TGI (MOLT-4 leukemia): > 100 µM
GI50 (UACC-62 melanoma): 1.45 µM
TGI (UACC-62 melanoma): 3.91 µM
GI50 (SW-620 colon): 0.363 µM
TGI (SW-620 colon): 12.2 µM
GI50 (HS 578T breast): 3.01 µM
TGI (HS 578T breast): > 100 µM
GI50 (UO-31 renal): 0.574 µM
TGI (UO-31 renal): 1.95 µM
